In ChEMBL document CHEMBL1150530, “Thromboxane receptor antagonism combined with thromboxane synthase inhibition. 6. 4-substituted 3-pyridinylalkanoic acids” (Bioorg Med Chem Lett, 1992):

Experiments:
Homo sapiens [1] = species on record: Homo sapiens; assay: Inhibitory concentration against U 46619 induced aggregation of human platelet rich plasma(PRP); assay type: functional
Thromboxane-A synthase [2] = molecular target: T1, Thromboxane-A synthase (Homo sapiens, UniProt P24557); assay: Inhibitory concentration against thromboxane synthase enzyme
T1 sequence (P24557 whole entry): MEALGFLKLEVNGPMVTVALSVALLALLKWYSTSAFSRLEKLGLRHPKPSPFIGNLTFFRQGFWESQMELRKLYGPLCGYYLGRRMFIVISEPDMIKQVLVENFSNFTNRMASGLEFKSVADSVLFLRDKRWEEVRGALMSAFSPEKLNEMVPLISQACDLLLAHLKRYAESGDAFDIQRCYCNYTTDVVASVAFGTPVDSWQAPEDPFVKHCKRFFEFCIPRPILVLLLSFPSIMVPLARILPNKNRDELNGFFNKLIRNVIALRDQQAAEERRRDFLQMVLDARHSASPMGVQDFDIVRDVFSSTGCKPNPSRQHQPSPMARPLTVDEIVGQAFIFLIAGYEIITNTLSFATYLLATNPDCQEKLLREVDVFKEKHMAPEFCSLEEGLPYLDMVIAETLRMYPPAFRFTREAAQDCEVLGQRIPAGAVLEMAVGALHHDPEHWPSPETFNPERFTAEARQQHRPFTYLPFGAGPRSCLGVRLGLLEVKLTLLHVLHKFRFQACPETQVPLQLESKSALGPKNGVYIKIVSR

Homo sapiens [3] = species on record: Homo sapiens; assay: Inhibitory concentration against U 46619 induced aggregation of human washed platelets(WP); assay type: functional
Homo sapiens [4] = species on record: Homo sapiens; assay: Inhibitory concentration against U 46619 induced aggregation of human platelet rich plasma(PRP); IA=Inactive; assay type: functional
Homo sapiens [5] = species on record: Homo sapiens; assay: Inhibitory concentration against U 46619 induced aggregation of human washed platelets(WP); IA=Inactive; assay type: functional
Thromboxane-A synthase [6] = molecular target: T1, Thromboxane-A synthase; assay: Inhibitory concentration against thromboxane synthase enzyme; IA=Inactive

O=C(O)CCCCCc1cnccc1CNS(=O)(=O)c1ccc(Cl)cc1
IC50 (Homo sapiens [1]): 1.08 µM
IC50 (Thromboxane-A synthase [2]): 0.066 µM
IC50 (Homo sapiens [3]): 0.22 µM

O=C(O)CCCCCCc1cnccc1CCCNS(=O)(=O)c1ccc(Cl)cc1
IC50 (Homo sapiens [1]): 7.97 µM
IC50 (Thromboxane-A synthase [2]): 0.015 µM
IC50 (Homo sapiens [3]): 1.44 µM

O=C(O)CCCCCc1cnccc1CCNS(=O)(=O)c1ccc(Cl)cc1
IC50 (Homo sapiens [1]): 0.61 µM
IC50 (Thromboxane-A synthase [2]): 0.043 µM
IC50 (Homo sapiens [3]): 0.195 µM

O=C(O)CCCCCc1cnccc1CCCNS(=O)(=O)c1ccc(Cl)cc1
IC50 (Homo sapiens [1]): 0.67 µM
IC50 (Thromboxane-A synthase [2]): 0.1 µM
IC50 (Homo sapiens [3]): 0.036 µM

O=C(O)CCCCCCc1cnccc1NS(=O)(=O)c1ccc(Cl)cc1
IC50 (Homo sapiens [4]): Not Active
IC50 (Homo sapiens [5]): Not Active
IC50 (Thromboxane-A synthase [6]): Not Active

O=C(O)CCCCCCc1cnccc1CCNS(=O)(=O)c1ccc(Cl)cc1
IC50 (Homo sapiens [1]): 0.44 µM
IC50 (Thromboxane-A synthase [2]): 0.08 µM
IC50 (Homo sapiens [3]): 0.094 µM
